US4315858A, “Antibacterial amide compounds” (Warner-Lambert Company, priority 1980, dated 1982)
In brackets after ≈: the same amount, converted by molar mass.

Columns and labels:
Assay type in all cases: cell-based
Entero. cloacae = assay: Minimal inhibitory concentration against Entero. cloacae; details: Enterobacter cloacae
Serr. marces. = assay: Minimal inhibitory concentration against Serr. marces.
Staph. aureus S18713 = assay: Minimal inhibitory concentration against Staph. aureus S18713; details: Staphylococcus aureus
[1] = test system: Pseudomonas aeruginosa #28; assay: Minimal inhibitory concentration against Pseudomonas aeruginosa #28
Klebs. pneu. = assay: Minimal inhibitory concentration against Klebs. pneu.

Row | MIC (Entero. cloacae) [µg/mL] | MIC (Serr. marces.) [µg/mL] | MIC (Staph. aureus S18713) [µg/mL] | MIC [1] [µg/mL] | MIC (Klebs. pneu.) [µg/mL] | SMILES
1 | 1.6 (≈ 2.33 µM) | 1.6 (≈ 2.33 µM) | > 50 | 3.1 (≈ 4.51 µM) | 12.5 (≈ 18.2 µM) | CC1(C)S[C@@H]2[C@H](NC(=O)[C@H](NC(=O)c3ccc(-c4ccc(NC(=O)Cc5nn[nH]n5)cc4)[nH]c3=O)c3ccc(O)cc3)C(=O)N2[C@H]1C(=O)O [Example 6]
2 | 3.1 (≈ 4.6 µM) | 100 (≈ 148 µM) | 100 (≈ 148 µM) | 1.6 (≈ 2.38 µM) | 3.1 (≈ 4.6 µM) | CC1(C)S[C@@H]2[C@H](NC(=O)[C@H](NC(=O)c3ccc(-c4ccc(NC(=O)C(F)(F)F)cc4)[nH]c3=O)c3ccc(O)cc3)C(=O)N2[C@H]1C(=O)O [Example 4, N-[6-[4-(Trifluoroacetylamino)phenyl]-1,2-dihydro-2-oxonicotinoyl]amoxicillin]
3 | 12.5 (≈ 20.7 µM) | 25 (≈ 41.4 µM) | 100 (≈ 166 µM) | 3.1 (≈ 5.14 µM) | 6.3 (≈ 10.4 µM) | CC(=O)Nc1ccc(-c2ccc(C(=O)N[C@@H](C(=O)N[C@@H]3C(=O)N4[C@@H]3SC(C)(C)[C@@H]4C(=O)O)c3ccccc3)c(=O)[nH]2)cc1 [Example 1, N-[6-[4-(Acetylamino)phenyl]-1,2-dihydro-2-oxonicotinoyl]-ampicillin]
4 | 3.1 (≈ 4.71 µM) | 25 (≈ 38 µM) | 200 (≈ 304 µM) | 6.3 (≈ 9.58 µM) | 6.3 (≈ 9.58 µM) | CC1(C)S[C@@H]2[C@H](NC(=O)[C@H](NC(=O)c3ccc(-c4ccc(NC(=O)C(F)(F)F)cc4)[nH]c3=O)c3ccccc3)C(=O)N2[C@H]1C(=O)O [Example 3, N-[6-[4(Trifluoroacetylamino)phenyl]-1,2-dihydro-2-oxonicotinoyl]ampicillin]
5 | 12.5 (≈ 18.1 µM) | 1.6 (≈ 2.32 µM) | > 50 | 1.6 (≈ 2.32 µM) | 6.3 (≈ 9.12 µM) | CC1(C)S[C@@H]2[C@H](NC(=O)[C@H](NC(=O)c3ccc(-c4ccc(NC(=O)CSCC#N)cc4)[nH]c3=O)c3ccc(O)cc3)C(=O)N2[C@H]1C(=O)O [Example 9]
6 | 3.1 (≈ 4.79 µM) | 3.1 (≈ 4.79 µM) | 25 (≈ 38.6 µM) | 1.6 (≈ 2.47 µM) | 12.5 (≈ 19.3 µM) | CC(=O)C(=O)Nc1ccc(-c2ccc(C(=O)N[C@@H](C(=O)N[C@@H]3C(=O)N4[C@@H]3SC(C)(C)[C@@H]4C(=O)O)c3ccc(O)cc3)c(=O)[nH]2)cc1 [Example 7, N-[6-[4-(1,2-Dioxopropylamino)phenyl]-1,2-dihydro-2-oxonicotinoyl]amoxicillin]
7 | 6.3 (≈ 10.4 µM) | 12.5 (≈ 20.7 µM) | > 200 | 6.3 (≈ 10.4 µM) | 3.1 (≈ 5.14 µM) | CC(=O)Nc1cccc(-c2ccc(C(=O)N[C@@H](C(=O)N[C@@H]3C(=O)N4[C@@H]3SC(C)(C)[C@@H]4C(=O)O)c3ccccc3)c(=O)[nH]2)c1 [Example 15, N-[6-[3-(Acetylamino)phenyl]-1,2-dihydro-2-oxonicotinoyl]ampicillin]
8 | 6.3 (≈ 9.05 µM) | 12.5 (≈ 18 µM) | 50 (≈ 71.9 µM) | 1.6 (≈ 2.3 µM) | 0.8 (≈ 1.15 µM) | CC1(C)S[C@@H]2[C@H](NC(=O)[C@H](NC(=O)c3ccc(-c4ccc(NC(=O)OCc5ccccc5)cc4)[nH]c3=O)c3ccccc3)C(=O)N2[C@H]1C(=O)O [Example 11, N-[6-[4-(Benzyloxycarbonylamino)phenyl]-1,2-dihydro-2-oxonicotinoyl]ampicillin]
9 | 1.6 (≈ 2.36 µM) | 200 (≈ 295 µM) | 50 (≈ 73.8 µM) | 6.3 (≈ 9.3 µM) | 6.3 (≈ 9.3 µM) | CCOC(=O)C(=O)Nc1ccc(-c2ccc(C(=O)N[C@@H](C(=O)N[C@@H]3C(=O)N4[C@@H]3SC(C)(C)[C@@H]4C(=O)O)c3ccc(O)cc3)c(=O)[nH]2)cc1 [Example 10, N-[6-[4-[(2-Ethoxy-1,2-dioxoethyl)amino]phenyl]-1,2-dihydro-2-oxonicotinoyl]amoxicillin]
10 | 1.6 (≈ 2.52 µM) | 25 (≈ 39.3 µM) | 100 (≈ 157 µM) | 1.6 (≈ 2.52 µM) | 3.1 (≈ 4.88 µM) | COC(=O)Nc1ccc(-c2ccc(C(=O)N[C@@H](C(=O)N[C@@H]3C(=O)N4[C@@H]3SC(C)(C)[C@@H]4C(=O)O)c3ccc(O)cc3)c(=O)[nH]2)cc1 [Example 12, N-[6-[4-(Methoxycarbonylamino)phenyl]-1,2-dihydro-2-oxonicotinoyl]amoxicillin]
11 | 1.6 (≈ 2.48 µM) | 200 (≈ 310 µM) | 100 (≈ 155 µM) | 1.6 (≈ 2.48 µM) | 3.1 (≈ 4.81 µM) | CC1(C)S[C@@H]2[C@H](NC(=O)[C@H](NC(=O)c3ccc(-c4ccc(NC(=O)CC#N)cc4)[nH]c3=O)c3ccc(O)cc3)C(=O)N2[C@H]1C(=O)O [Example 5]
12 | 6.3 (≈ 10.2 µM) | 25 (≈ 40.3 µM) | 200 (≈ 323 µM) | 3.1 (≈ 5 µM) | 12.5 (≈ 20.2 µM) | CC(=O)Nc1ccc(-c2ccc(C(=O)N[C@@H](C(=O)N[C@@H]3C(=O)N4[C@@H]3SC(C)(C)[C@@H]4C(=O)O)c3ccc(O)cc3)c(=O)[nH]2)cc1 [Example 2, N-[6-[4-(acetylamino)phenyl]-1,2-dihydro-2-oxonicotinoyl]amoxicillin]
13 | 3.1 (≈ 4.78 µM) | 0.8 (≈ 1.23 µM) | 50 (≈ 77.1 µM) | 0.8 (≈ 1.23 µM) | 6.3 (≈ 9.71 µM) | CCNC(=O)Nc1ccc(-c2ccc(C(=O)N[C@@H](C(=O)N[C@@H]3C(=O)N4[C@@H]3SC(C)(C)[C@@H]4C(=O)O)c3ccc(O)cc3)c(=O)[nH]2)cc1 [Example 14, N-[6-[4-(N-Ethylcarbamoylamino)phenyl]-1,2-dihydro-2-oxonicotinoyl]amoxicillin]
14 | 6.3 (≈ 8.59 µM) | 0.4 (≈ 0.545 µM) | > 50 | 0.8 (≈ 1.09 µM) | 3.1 (≈ 4.22 µM) | CC1(C)S[C@@H]2[C@H](NC(=O)[C@H](NC(=O)c3ccc(-c4ccc(NC(=O)CSCC(F)(F)F)cc4)[nH]c3=O)c3ccc(O)cc3)C(=O)N2[C@H]1C(=O)O [Example 8]
15 | 1.6 (≈ 2.3 µM) | 50 (≈ 71.9 µM) | 50 (≈ 71.9 µM) | 1.6 (≈ 2.3 µM) | 3.1 (≈ 4.46 µM) | CC1(C)S[C@@H]2[C@H](NC(=O)[C@H](NC(=O)c3ccc(-c4ccc(NC(=O)Cc5ccccc5)cc4)[nH]c3=O)c3ccc(O)cc3)C(=O)N2[C@H]1C(=O)O [Example 13, N-[6-[4-(Phenylacetylamino)phenyl]-1,2-dihydro-2-oxonicotinoyl]amoxicillin]
